Source: patent EP4566596A1, “ANTI-HBV AGENT” (RIKEN, priority 2022, dated 2024)
pIC50: −log10 of the molar value. Values joined by “and” are separate entries in the source; they are usually repeats but may differ in a detail not shown here. Equal values may be shown once. Read-outs that look alike come from different tables or passages of the source.

Legend:
pgRNA in PXB cells = assay: Anti-HBV activity using hepatitis B virus-infected primary cultured human hepatocytes (pgRNA, qPCR); format: cell-based; conditions: 7 days treatment; for effect of suppressing pgRNA: FIG. 3; for pIC50: Hepatitis B virus, Hepatocyte, compound added after 28 days
[1] = format: in vitro ADME, mouse
Procedure: (§1) Then, 50 µL of a NADPH regeneration system (85 mM D-glucose-6-phosphate, 10 mM β-nicotinamide adenine dinucleotide phosphate, oxidized form, and 10 U/mL glucose-6-phosphate dehydrogenase, all manufactured by Oriental Yeast Co., Ltd.) was added and mixed, and incubation was started. The incubation starting point was set to 0 minutes of reaction. At 0, 30, and 60 minutes of reaction, a 50-µL fraction of the reaction solution was collected into 200 µL of an ice-cooled 0.5 µM propranolol/acetonitrile solution, and the reaction was stopped. The obtained preparative solution was transferred to a protein removal plate (manufactured by Phenomenex), and after suction filtration through a manifold for 96-well plates, the filtrate was collected into a 96-well plate for collection. 100 µL of the collected filtrate was transferred to a 96-well plate and dried in a nitrogen-blowing high-speed parallel concentrator (Turbo Vap 96, manufactured by Biotage). After dissolving the dried sample with the initial mobile phase, the target compound was quantified by liquid chromatography-tandem mass spectrometry (LC-MS/MS). […] As technical replicates, the residual rate was calculated in two independent series for each compound to be evaluated for each animal species.
(§2) The configuration of LC-MS/MS is as follows: high-performance liquid chromatography: Nexera X2 UPLC system (manufactured by Shimadzu), column: ACQUITY UPLC BEH C18 Column, 130A, 1.7 µm, 2.1 ×× 50 mm (manufactured by Waters), guard column: ACQUITY UPLC BEH C18 VanGuard Column, 130A, 1.7 µm, 2.1 ×× 50 mm (manufactured by Waters), mobile phase A: 0.1% aqueous formic acid solution/acetonitrile (9:1, v/v), mobile phase B: 0.1% aqueous formic acid solution/acetonitrile (1:9, v/v), gradient conditions: 0 to 1 min; 30% B, 1 to 1.5 min; 30 to 100% B, 1.5 to 3.5 min; 100% B, and 3.5 to 5 min; 30% B, and mass spectrometer: QTRAP 4500 (manufactured by AB Sciex) were used, a measurement target compound was ionized using an ESI method, and target ions were measured by multiple reaction monitoring. […]

HBV DNA from Hep2.2.15.7 = assay: Anti-HBV activity using hepatitis B virus-producing cultured cells (HBV DNA in culture medium, qPCR); format: cell-based; conditions: 144 h, Hep2.2.15.7 cells, HBV DNA in culture medium after 6 days
Procedure: Hep2.2.15.7 cells were spread in a 96-well plate (manufactured by TPP) at a density of 1 × 10^5 cells/well and cultured at 37°C and 5% CO2 using a culture medium containing DMEM/F12-GlutaMAX (manufactured by Thermo Fisher Scientific Inc.), 10% fetal bovine serum, 100 U/ml penicillin, 100 µg/ml streptomycin (manufactured by Thermo Fisher Scientific Inc.), and 5 µg/ml insulin (manufactured by Wako Pure Chemical). A test compound was added to the culture, and cells in three wells per condition were cultured. After 3 days, replacement with a medium containing the test compound was performed. After 6 days, cell viability was determined by quantitatively measuring intracellular mitochondrial activity. This was performed by measuring absorbance at 490 nm using Cell Proliferation Kit II (XTT) (manufactured by Roche) and a plate reader, EnSight (manufactured by PerkinElmer). At the same time, HBV-derived DNA was extracted and purified from the cell culture medium using Agencourt Genfind v2 (manufactured by Beckman-Coulter). […].

[2] = Mouse blood drug concentrations after oral administration (LC-MS/MS); format: in vivo, mice (ICR strain); conditions: ICR mice, plasma; for half-life: mouse, read-out: Elimination half-life
Procedure: A compound was dissolved in a mixture of ethanol and polysorbate 80 (1:1) to make 10 mg/mL, and the resulting mixture was diluted with saline to 1 mg/mL and orally administered to mice (ICR strain, males, 6-10 weeks old) using a sonde. Blood was collected from the tail vein at 0.25, 0.5, 1, 2, 4, and 7 hours after administration, and plasma was obtained. An internal standard (ritonavir) was added to 10 µL of plasma, and a deproteinized sample was used for measurement. The measurement was performed according to a liquid chromatography-tandem mass spectrometry method using a Shimadzu LCMS-8050 system. The analytical conditions were as follows. A COSMOSIL 3C18-MS-II (2.0 ID × 50 mm; manufactured by Nacalai Tesque, Inc.) column was used. The column temperature was 40°C, and the autosampler temperature was 4°C. The mobile phase was a combination of Phase A: water/acetonitrile = 9/1 (v/v) and Phase B: acetonitrile, and the flow rate was 0.6 mL/min. 2 µL of the sample was injected. The gradient elution conditions were 0 to 0.9 min, 5% B; 0.9 to 2.1 min, 5 to 95% B; 2.1 to 5.5 min, 95% B; 5.5 to 5.51 min, 95 to 5% B; and 5.51 to 6.0 min, 5% B. The cleaning solution used was an isopropanol/methanol/acetonitrile/water = 1/1/1/1 (v/v/v/v, %) solution containing 0.1% formic acid. The ionization method was ESI, and the collected data was processed using LabSolutions software (Ver. 5.97 SP1, Shimadzu Corporation).

[3] = format: in vitro ADME, rat
Procedure: as §1, §2

[4] = format: in vitro ADME, human
Procedure: as §1, §2

cccDNA = assay: Effect of suppressing cccDNA in HBV-infected PXB cells (qPCR); format: cell-based, HBV genotype C; conditions: 7 days treatment, FIG. 3
Procedure: Fresh human hepatocytes derived from PXB mice (PXB cells; manufactured by PhoenixBio Co., Ltd.) were spread in a collagen-coated 96-well plate (manufactured by FALCON) at a density of 0.7 × 10^5 cells/well, and cultured for 7 days using a dHCGM medium (manufactured in house) at 37°C and 5% CO2. HBV genotype C (manufactured by PhoenixBio Co., Ltd.) was added to the culture medium together with 4% PEG 8000 at a final density of 3.5 × 10^5 copies/well, and the medium was replaced after 1 day, and every third or fourth day thereafter. A test compound was added after 28 days, and cells in three wells per condition were cultured. Then, replacement with a medium containing the test compound was also performed after 3 or 4 days, and after 7 days, DNA was extracted and purified from the cells using Agencourt DNAdvance (manufactured by Beckman-Coulter). […]

HBc T33N = HBc T33N (Hepatitis B virus genotype D subtype ayw, UniProt P03146, T33N); assay: HBV replication assay in HeLa cells, HBc T33N mutant; format: cell-based
HBc (1-149) = assay: Capsid formation mechanism: gel filtration and electron microscopy of recombinant HBc (1-149); format: biochemical, HBV genotype C
Procedure: An expression plasmid in which the ubiquitin-like protein SUMO serving as a tag was fused to the sequence of the association domain (1-149) of HBc of genotype C was prepared and introduced into the Escherichia coli KRX strain, and a recombinant protein was expressed and purified. After the recombinant HBc (1-149) was cleaved with a SUMO protease to remove the tag, the dimer peak was separated by gel filtration and used for subsequent analyses. […]
This behavior is similar to that of the compound CBT-078. […] A fraction was collected from the elution peak at the position corresponding to the capsid, and a negatively stained image was captured using an electron microscope.

HBV genotype C = assay: Anti-HBV activity in hepatitis B virus-infected human hepatocyte chimeric mice (serum HBV DNA); format: in vivo, Human hepatocyte-transplanted chimeric mice (PXB mice); conditions: 10 mg/kg orally twice daily for 21 days, FIG. 4
HBV = assay: Effect of suppressing HBsAg, HBeAg and pgRNA in primary cultured human hepatocytes infected with HBV; format: cell-based; conditions: concentrations of 0.01 to 100 mM, FIG. 2
Procedure: Primary cultured human hepatocytes infected with HBV were treated with the compound CBT-289 or Entecavir (ETV) at concentrations of […], and the HBsAg and HBeAg levels in the medium and the pgRNAlevel in the cells were measured.

HBc T33N, sequence (P03146 whole entry T33N, looked up): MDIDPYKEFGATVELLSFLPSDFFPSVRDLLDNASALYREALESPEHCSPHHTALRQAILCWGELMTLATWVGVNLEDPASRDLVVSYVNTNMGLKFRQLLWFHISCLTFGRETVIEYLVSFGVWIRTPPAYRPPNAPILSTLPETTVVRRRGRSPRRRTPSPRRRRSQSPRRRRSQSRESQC

Cc1ccccc1NC(=O)c1cccc(C(=O)Nc2ccc(F)cc2)c1F [CBT-078, reference compound]
effect of suppressing pgRNA (pgRNA in PXB cells): did not have the effect of suppressing pgRNA | residual rate ([1]; Mouse liver microsomes, 0 min (baseline)): 100% | residual rate ([1]; Mouse liver microsomes, 30 min): 6% | residual rate ([1]; Mouse liver microsomes, 60 min): 0% | pIC50 (HBV DNA from Hep2.2.15.7): 6.57 | Maximum blood concentration [2]: 710 ng/mL | Time to reach maximum blood concentration [2]: 30 min | half-life ([2]; in vivo): 0.533 h | residual rate ([3]; Rat liver microsomes, 0 min (baseline)): 100% | residual rate ([3]; Rat liver microsomes, 30 min): 53% and 52% | residual rate ([3]; Rat liver microsomes, 60 min): 35% and 34% | residual rate ([4]; Human liver microsomes, 0 min (baseline)): 100% | residual rate ([4]; Human liver microsomes, 30 min): 77% | residual rate ([4]; Human liver microsomes, 60 min): 60% and 58% | effect of suppressing cccDNA (cccDNA): did not have the effect of suppressing pgRNA or cccDNA

Cc1cc(C#N)ccc1NC(=O)c1cccc(C(=O)Nc2ccc(F)cc2)c1F [CBT-209]
antiviral activity against viruses with the HBc T33N mutation (HBc T33N): have antiviral activity even against viruses with the HBc T33N mutation | residual rate ([1]; mouse, 0 min, 1 µM, pH 7.4): 100% | association state of HBc (1-149) by gel filtration (HBc (1-149); 11 µM HBc (1-149), 15 µM compound, overnight incubation at 4°C, FIG. 5): the elution peak shifted to the position corresponding to the capsid | stability of the capsids formed (HBc (1-149); 7 days of incubation, gel filtration and electron microscope): stable even after 7 days of incubation | HBV DNA level in the serum (HBV genotype C): preferentially reduced compared with GLS4 or the vehicle | pIC50 (HBV DNA from Hep2.2.15.7): 7.41 | Maximum blood concentration [2]: 250 ng/mL | Time to reach maximum blood concentration [2]: 120 min | half-life ([2]; male): 13.8 h | residual rate ([3]; rat, 0 min, 1 µM, pH 7.4): 100% | residual rate ([4]; human, 0 min, 1 µM, pH 7.4): 100%

CCCCNC(=O)c1ccc(NC(=O)c2cccc(C(=O)Nc3ccc(F)cc3)c2F)c(C)c1 [CBT-289]
effect of suppressing pgRNA (pgRNA in PXB cells): suppressed cccDNA and pgRNA in a concentration-dependent manner | pIC50 (pgRNA in PXB cells): 5.61 | pIC50 (HBV DNA from Hep2.2.15.7): 7.13 | HBeAg level in the medium (HBV): suppressed HBsAg, HBeAg, and pgRNAin a concentration-dependent manner | HBsAg level in the medium (HBV): suppressed HBsAg, HBeAg, and pgRNAin a concentration-dependent manner | pgRNA level in the cells (HBV): suppressed HBsAg, HBeAg, and pgRNAin a concentration-dependent manner | effect of suppressing cccDNA (cccDNA): suppressed cccDNA and pgRNA in a concentration-dependent manner

CCCNC(=O)c1ccc(NC(=O)c2cccc(C(=O)Nc3ccc(F)cc3)c2F)c(C)c1 [CBT-383]
pIC50 (pgRNA in PXB cells): 5.63 | pIC50 (HBV DNA from Hep2.2.15.7): 6.04

CCNC(=O)c1ccc(NC(=O)c2cccc(C(=O)Nc3ccc(F)cc3)c2F)c(C)c1 [CBT-384]
pIC50 (pgRNA in PXB cells): 4.78 | pIC50 (HBV DNA from Hep2.2.15.7): 7.12

Cc1cc(C(=O)NC(C)(C)C)ccc1NC(=O)c1cccc(C(=O)Nc2ccc(F)cc2)c1F [CBT-385]
pIC50 (pgRNA in PXB cells): < 4.00 | pIC50 (HBV DNA from Hep2.2.15.7): 6.74

C=CCCNC(=O)c1ccc(NC(=O)c2cccc(C(=O)Nc3ccc(F)cc3)c2F)c(C)c1 [CBT-387]
pIC50 (pgRNA in PXB cells): 5.47 | pIC50 (HBV DNA from Hep2.2.15.7): 7.39

CCCCCCNC(=O)c1ccc(NC(=O)c2cccc(C(=O)Nc3ccc(F)cc3)c2F)c(C)c1 [CBT-388]
pIC50 (pgRNA in PXB cells): 5.34 | pIC50 (HBV DNA from Hep2.2.15.7): 6.74

CCCCCCCCCCNC(=O)c1ccc(NC(=O)c2cccc(C(=O)Nc3ccc(F)cc3)c2F)c(C)c1 [CBT-389]
pIC50 (pgRNA in PXB cells): 4.00 | pIC50 (HBV DNA from Hep2.2.15.7): 6.33

Cc1cc(C(=O)NCCC(C)C)ccc1NC(=O)c1cccc(C(=O)Nc2ccc(F)cc2)c1F [CBT-390]
pIC50 (pgRNA in PXB cells): 6.14 | pIC50 (HBV DNA from Hep2.2.15.7): 7.21

CCC[C@@H](C)NC(=O)c1ccc(NC(=O)c2cccc(C(=O)Nc3ccc(F)cc3)c2F)c(C)c1 [CBT-391]
pIC50 (pgRNA in PXB cells): 5.61 | pIC50 (HBV DNA from Hep2.2.15.7): 7.02

C=C1[C@H](CO)[C@@H](O)C[C@@H]1n1cnc2c(=O)[nH]c(N)nc21 [ETV, Entecavir, reference compound]
HBeAg level in the medium (HBV): did not suppress them | HBsAg level in the medium (HBV): did not suppress them | pgRNA level in the cells (HBV): did not suppress them
